Measured values: patent publication US12616712B2 (LONZA SALES AG, priority 2019, dated 2026)

Test system: GL261-Luc glioblastoma multiforme
Experiment: syngeneic GL261-Luc glioblastoma multiforme model
Assay type: in vivo
Conditions: mice, control groups, FIG. 7A
Description: The efficacy of exoSTING treatment in a syngeneic GL261-Luc glioblastoma multiforme model was assessed. Briefly, 5×10^5 GL261-LUC cells were administered via a 10 μl intra-striatal stereotactic injection to the mice. Tumor presence was confirmed by T1-weighted (T1W) MRI scan 15 days later. Four days after the MRI scan, when tumors were approximately 80-100 mm^3, stereotactic coordinates were used to administer 5 μl (˜120 ng) ExoSTING every 72 hours for 3 total injections to some of the animals. […] Anti-PDL-1 mAb was dosed twice weekly for 2 weeks (IOmpk IV). Phosphate buffered saline (PBS) alone and Temozolomide (TMZ) alone were dosed twice weekly for 2 weeks (30mpk IP). Mice were then followed for survival end-point.

**Q.** With `Cn1nnc2c(C(N)=O)ncn2c1=O` [Temozolamide] as the compound, how does the “survival: all animals succumbed to the tumor by day post tumor induction” value read?
**A.** The value was roughly 40 days.
